The results in this text go back to US12540143B2, “Methods and compositions for targeted protein degradation” (Ranok Therapeutics (Hangzhou) Co. Ltd., priority 2019, dated 2026).

Each structure is given as a SMILES string.

The target in this test is BRPF3 (Homo sapiens, UniProt Q9ULD4). The test is described as follows: Bromodomain Binding Assay. Particulars: 10 μM Compound 074, read-out: Bromodomain Binding % of Control.
BRPF3, sequence (Q9ULD4 589-693 limits assumed): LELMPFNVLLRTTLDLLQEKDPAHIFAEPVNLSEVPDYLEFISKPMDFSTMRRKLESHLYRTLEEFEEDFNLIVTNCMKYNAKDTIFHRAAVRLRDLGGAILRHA

As for `Cc1sc2c(c1C)C(c1ccc(Cl)cc1)=N[C@@H](CC(=O)N1CCC(CN3CCN(Cc4ccc(-n5c(O)nnc5-c5cc(C(C)C)c(O)cc5O)cc4)CC3)CC1)c1nnc(C)n1-2.Cl` [Compound 74, (S)-2-(4-(4-chlorophenyl)-2,3,9-trimethyl-6H-thieno[3,2-f][1,2,4]triazolo[4,3-a][1,4]diazepin-6-yl)-1-(4-((4-(4-(3-(2,4-dihydroxy-5-isopropylphenyl)-5-hydroxy-4H-1,2,4-triazol-4-yl)benzyl)piperazin-1-yl)methyl)piperidin-1-yl)ethan-1-one hydrochloride], the remaining activity at 10 µM was greater than 75%.
